From patent publication US4530840A, “Injectable, long-acting microparticle formulation for the delivery of anti-inflammatory agents” (priority 1982, dated 1985)

How the values were obtained:
[1] = Saturation solubility in 50 wt % aqueous ethanol; format: physicochemical; settings: organic solvent or mixture, 50 wt % of aqueous ethanol
[2] = In vitro release / dissolution of methylprednisolone acetate in 50 wt % aqueous ethanol at 37° C.; format: physicochemical; settings: unencapsulated
Description: The in vitro release of methylprednisolone acetate from microparticles into a receiving fluid comprising 50 wt % of aqueous ethanol maintained at 37° C. was measured.
Triplicate samples of 20 mg of microparticles were weighed and each sample was placed in an 8-oz bottle containing 150 mL of 50 wt % aqueous ethanol. […] Next, the bottles were sealed with a thin sheet of Teflon and a screw cap to prevent evaporation. The bottles were then placed in an Eberbach shaker bath oscillating at 120 cycles/min and maintained at 37° C. The amount of drug released from the microparticles as a function of time was measured by determining the absorbance of the aqueous ethanol receiving fluid at 247 nm and by using the following equation based on Beer's Law.
methylprednisolone acetate in g/ml.

## CC(=O)OCC(=O)[C@@]1(O)CC[C@H]2[C@@H]3C[C@H](C)C4=CC(=O)C=C[C@]4(C)[C@H]3[C@@H](O)C[C@@]21C [Methylprednisolone acetate, 6α-methylprednisolone acetate]
[1]
  solubility: > 3 mg/mL
[2]
  dissolution complete: 30 min
